Results taken from PubChem BioAssay AID1963843 (Molecular Pharmacology Branch, DTP, NCI, 2024).

Test system: 616215-338-R-J1-PDC complex spheroid viability
Experiment: Anticancer human tumor 616215-338-R-J1-PDC patient-derived colon adenocarcinoma cell line growth inhibition [POLQ]
Details: for IC50: curve of first compound; for viability, T/C: stronger effect = lower value; active means viability on the fitted dose curve at most 10% of control; inactive means the rest
Summary of the method: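 Complex spheroid viability model combining PDC tumour cells with endothelial (HUVEC) and MSC stromal cells. Novobiocin, ART-558 or RP6685 were tested singly and in combination with standard and investigational anticancer drugs. Each was titrated in half-log steps from near clinical Cmax, or from 10 microM where Cmax was unknown.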

[1] = second compound 0.0316 µM, first compound 0.0316 µM
[2] = second compound 0.0316 µM, first compound 0.1 µM
[3] = second compound 0.0316 µM, first compound 0.316 µM
[4] = second compound 0.0316 µM, first compound 1 µM
[5] = second compound 0.0316 µM, first compound 3.16 µM
[6] = second compound 0.0316 µM, first compound 10 µM
[7] = second compound 0.1 µM, first compound 0.0316 µM
[8] = second compound 0.1 µM, first compound 0.1 µM
[9] = second compound 0.1 µM, first compound 0.316 µM
[10] = second compound 0.1 µM, first compound 1 µM
[11] = second compound 0.1 µM, first compound 3.16 µM
[12] = second compound 0.1 µM, first compound 10 µM
[13] = second compound 0.316 µM, first compound 0.0316 µM
[14] = second compound 0.316 µM, first compound 0.1 µM
[15] = second compound 0.316 µM, first compound 0.316 µM
[16] = second compound 0.316 µM, first compound 1 µM
[17] = second compound 0.316 µM, first compound 3.16 µM
[18] = second compound 0.316 µM, first compound 10 µM
[19] = second compound 1 µM, first compound 0.0316 µM
[20] = second compound 1 µM, first compound 0.1 µM
[21] = second compound 1 µM, first compound 0.316 µM
[22] = second compound 1 µM, first compound 1 µM
[23] = second compound 1 µM, first compound 3.16 µM
[24] = second compound 1 µM, first compound 10 µM
[25] = second compound 3.16 µM, first compound 0.0316 µM
[26] = second compound 3.16 µM, first compound 0.1 µM
[27] = second compound 3.16 µM, first compound 0.316 µM
[28] = second compound 3.16 µM, first compound 1 µM
[29] = second compound 3.16 µM, first compound 3.16 µM
[30] = second compound 3.16 µM, first compound 10 µM
[31] = second compound 10 µM, first compound 0.0316 µM
[32] = second compound 10 µM, first compound 0.1 µM
[33] = second compound 10 µM, first compound 0.316 µM
[34] = second compound 10 µM, first compound 1 µM
[35] = second compound 10 µM, first compound 3.16 µM
[36] = second compound 10 µM, first compound 10 µM
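Further: spheroids exposed to compounds for one week before readout.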
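Wherever viability, T/C is given: percent viability relative to DMSO vehicle wells taken as 100%.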

C=CC(=O)N1CCN(c2nc(=O)n(-c3c(C)ccnc3C(C)C)c3nc(-c4c(O)cccc4F)c(F)cc23)C(C)C1 (stereo not drawn) + COC1C(OC(N)=O)C(O)C(Oc2ccc3c(O)c(NC(=O)c4ccc(O)c(CC=C(C)C)c4)c(=O)oc3c2C)OC1(C)C
inactive: viability, T/C [1] 105% | viability, T/C [2] 99.7% | viability, T/C [3] 98.4% | viability, T/C [4] 108% | viability, T/C [5] 113% | viability, T/C [6] 106% | viability, T/C [7] 98.4% | viability, T/C [8] 98.1% | viability, T/C [9] 98% | viability, T/C [10] 93.3% | viability, T/C [11] 104% | viability, T/C [12] 87.8% | viability, T/C [13] 104% | viability, T/C [14] 99.7% | viability, T/C [15] 99.6% | viability, T/C [16] 95% | viability, T/C [17] 107% | viability, T/C [18] 95.8% | viability, T/C [19] 96.9% | viability, T/C [20] 95.8% | viability, T/C [21] 94% | viability, T/C [22] 101% | viability, T/C [23] 105% | viability, T/C [24] 90.6% | viability, T/C [25] 94.8% | viability, T/C [26] 103% | viability, T/C [27] 94.3% | viability, T/C [28] 95% | viability, T/C [29] 104% | viability, T/C [30] 70.4% | viability, T/C [31] 99.7% | viability, T/C [32] 94.3% | viability, T/C [33] 98% | viability, T/C [34] 102% | viability, T/C [35] 102% | viability, T/C [36] 83.6%
> 10 µM: IC50 (second compound 0.0316 µM) | IC50 (second compound 0.1 µM) | IC50 (second compound 0.316 µM) | IC50 (second compound 1 µM) | IC50 (second compound 3.16 µM) | IC50 (second compound 10 µM)

O=C(Nc1ccc(O)c(NS(=O)(=O)c2ccc(F)cc2)c1)c1ccc(-c2ccccc2)cc1 + COC1C(OC(N)=O)C(O)C(Oc2ccc3c(O)c(NC(=O)c4ccc(O)c(CC=C(C)C)c4)c(=O)oc3c2C)OC1(C)C
inactive: viability, T/C [1] 103% | viability, T/C [2] 103% | viability, T/C [3] 104% | viability, T/C [4] 109% | viability, T/C [5] 118% | viability, T/C [6] 97.8% | viability, T/C [7] 102% | viability, T/C [8] 100% | viability, T/C [9] 103% | viability, T/C [10] 95.1% | viability, T/C [11] 99.6% | viability, T/C [12] 118% | viability, T/C [13] 101% | viability, T/C [14] 98.3% | viability, T/C [15] 91.3% | viability, T/C [16] 93.8% | viability, T/C [17] 106% | viability, T/C [18] 92.2% | viability, T/C [19] 105% | viability, T/C [20] 107% | viability, T/C [21] 101% | viability, T/C [22] 116% | viability, T/C [23] 101% | viability, T/C [24] 105% | viability, T/C [25] 102% | viability, T/C [26] 105% | viability, T/C [27] 100% | viability, T/C [28] 105% | viability, T/C [29] 107% | viability, T/C [30] 93.9% | viability, T/C [31] 108% | viability, T/C [32] 100% | viability, T/C [33] 98.5% | viability, T/C [34] 103% | viability, T/C [35] 107% | viability, T/C [36] 88.8%
> 10 µM: IC50 (second compound 0.0316 µM) | IC50 (second compound 0.1 µM) | IC50 (second compound 0.316 µM) | IC50 (second compound 1 µM) | IC50 (second compound 3.16 µM) | IC50 (second compound 10 µM)

C=CCn1c(=O)c2cnc(Nc3ccc(N4CCN(C)CC4)cc3)nc2n1-c1cccc(C(C)(C)O)n1 + Nc1ccc(C#CCN(C(=O)Cc2ncc(C(F)(F)F)cc2C(F)(F)F)c2ccc(F)cc2)nn1
0.359 µM: IC50 (second compound 3.16 µM)
0.302 µM: IC50 (second compound 0.316 µM)
0.365 µM: IC50 (second compound 1 µM)
0.43 µM: IC50 (second compound 0.0316 µM)
0.244 µM: IC50 (second compound 10 µM)
inactive: viability, T/C (second compound 0.0316 µM, first compound 0.00316 µM) 102% | viability, T/C (second compound 0.0316 µM, first compound 0.01 µM) 98.7% | viability, T/C [1] 98.4% | viability, T/C [2] 96.9% | viability, T/C [3] 55.4% | viability, T/C [4] 35.4% | viability, T/C (second compound 0.1 µM, first compound 0.00316 µM) 102% | viability, T/C (second compound 0.1 µM, first compound 0.01 µM) 89.1% | viability, T/C [7] 96.8% | viability, T/C [8] 97.1% | viability, T/C [9] 45.3% | viability, T/C [10] 29.1% | viability, T/C (second compound 0.316 µM, first compound 0.00316 µM) 99.8% | viability, T/C (second compound 0.316 µM, first compound 0.01 µM) 111% | viability, T/C [13] 107% | viability, T/C [14] 83% | viability, T/C [15] 49.9% | viability, T/C [16] 28.1% | viability, T/C (second compound 1 µM, first compound 0.00316 µM) 98.9% | viability, T/C (second compound 1 µM, first compound 0.01 µM) 103% | viability, T/C [19] 100% | viability, T/C [20] 96.8% | viability, T/C [21] 53.2% | viability, T/C [22] 27.6% | viability, T/C (second compound 3.16 µM, first compound 0.00316 µM) 90% | viability, T/C (second compound 3.16 µM, first compound 0.01 µM) 97.9% | viability, T/C [25] 94.6% | viability, T/C [26] 87.9% | viability, T/C [27] 52.9% | viability, T/C [28] 27% | viability, T/C (second compound 10 µM, first compound 0.00316 µM) 79% | viability, T/C (second compound 10 µM, first compound 0.01 µM) 91.4% | viability, T/C [31] 91.1% | viability, T/C [32] 79.3% | viability, T/C [33] 41.4% | viability, T/C [34] 26.5%
0.285 µM: IC50 (second compound 0.1 µM)

COc1cc(C2c3cc4c(cc3C(OC3OC5COC(C)OC5C(O)C3O)C3COC(=O)C23)OCO4)cc(OC)c1O (stereo not drawn) + COC1C(OC(N)=O)C(O)C(Oc2ccc3c(O)c(NC(=O)c4ccc(O)c(CC=C(C)C)c4)c(=O)oc3c2C)OC1(C)C
inactive: viability, T/C [1] 100% | viability, T/C [2] 102% | viability, T/C [3] 95.3% | viability, T/C [4] 83% | viability, T/C [5] 88.3% | viability, T/C [6] 54.2% | viability, T/C [7] 117% | viability, T/C [8] 117% | viability, T/C [9] 95.6% | viability, T/C [10] 81.8% | viability, T/C [11] 77.1% | viability, T/C [12] 59.8% | viability, T/C [13] 108% | viability, T/C [14] 106% | viability, T/C [15] 93.4% | viability, T/C [16] 85.8% | viability, T/C [17] 81% | viability, T/C [18] 55% | viability, T/C [19] 104% | viability, T/C [20] 113% | viability, T/C [21] 92.5% | viability, T/C [22] 86.1% | viability, T/C [23] 74.5% | viability, T/C [24] 45.8% | viability, T/C [25] 111% | viability, T/C [26] 111% | viability, T/C [27] 100% | viability, T/C [28] 79% | viability, T/C [29] 68.1% | viability, T/C [30] 59.3% | viability, T/C [31] 106% | viability, T/C [32] 108% | viability, T/C [33] 84.5% | viability, T/C [34] 82.5% | viability, T/C [35] 74.1% | viability, T/C [36] 56.5%
> 10 µM: IC50 (second compound 0.0316 µM) | IC50 (second compound 0.1 µM) | IC50 (second compound 0.316 µM) | IC50 (second compound 3.16 µM) | IC50 (second compound 10 µM)
8.65 µM: IC50 (second compound 1 µM)
